The text below walks through data of paper PMC6271941, “Ruthenium^II(η^6-arene) Complexes of Thiourea Derivatives: Synthesis, Characterization and Urease Inhibition” (Molecules, 2014).

For one experiment, the target named is jack bean urease (Canavalia ensiformis, UniProt P07374). As to the kind of experiment: biochemical. Format: biochemical.
Sequence of jack bean urease (P07374 whole entry, looked up): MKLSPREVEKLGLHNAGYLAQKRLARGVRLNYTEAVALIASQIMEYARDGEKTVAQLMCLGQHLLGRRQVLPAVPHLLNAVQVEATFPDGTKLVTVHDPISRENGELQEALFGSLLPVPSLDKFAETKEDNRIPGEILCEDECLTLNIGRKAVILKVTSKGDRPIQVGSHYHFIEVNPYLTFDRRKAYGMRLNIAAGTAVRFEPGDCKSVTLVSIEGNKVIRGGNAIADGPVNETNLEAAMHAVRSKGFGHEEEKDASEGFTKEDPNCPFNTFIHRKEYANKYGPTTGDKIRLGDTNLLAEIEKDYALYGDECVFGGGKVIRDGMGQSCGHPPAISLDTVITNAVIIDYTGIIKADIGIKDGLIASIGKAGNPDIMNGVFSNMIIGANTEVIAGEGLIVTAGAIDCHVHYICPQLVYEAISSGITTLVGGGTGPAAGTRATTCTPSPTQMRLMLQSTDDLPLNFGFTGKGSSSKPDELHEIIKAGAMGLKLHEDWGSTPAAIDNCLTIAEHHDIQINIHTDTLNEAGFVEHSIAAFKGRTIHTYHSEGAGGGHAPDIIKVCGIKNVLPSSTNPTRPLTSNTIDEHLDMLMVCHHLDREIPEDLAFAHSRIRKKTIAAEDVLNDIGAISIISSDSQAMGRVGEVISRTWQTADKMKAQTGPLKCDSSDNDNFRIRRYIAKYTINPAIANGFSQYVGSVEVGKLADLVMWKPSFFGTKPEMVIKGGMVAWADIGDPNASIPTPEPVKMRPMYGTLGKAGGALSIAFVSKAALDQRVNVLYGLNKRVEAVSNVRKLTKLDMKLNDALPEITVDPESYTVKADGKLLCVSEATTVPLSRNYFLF
Details: not given
Here is the method:
The urease inhibitory activity was measured according to a reported method with slight modifications. The enzyme (5 U/mL; 10 μL) and test compound in buffer (10 μL) were sequentially added to 40 μL of buffer (pH 8.2) containing 100 mM urea, 1 mM EDTA, 0.01 M K2HPO4 and 0.01 M […]. The mixture was pre-incubated for 30 min at 37 °C. The reaction was initiated by the addition of 40 μL of phenol reagent (1%, w/v phenol, 0.005%, w/v sodium nitroprusside) and 40 μL of alkali reagent (0.5%, w/v NaOH, 0.1% active chloride NaOCl) to each well. After 10 min of incubation at 37 °C, the absorbance was measured at 630 nm using a Microplate reader (Bio-Tek ELx 800^TM, Instruments, Inc. USA). All the experiments were carried out with their respective controls in triplicate. Thiourea (0.1 mM well^−1) was used as a positive control.
The compound `S=C1NCCN1` [I, imidazolidine-2-thione] gave an IC50 of 232 ± 27 µM.

`S=C1NCCCN1` [II, 1,3-diazinane-2-thione]: the half-inhibitory concentration (IC50) came out at 118 ± 13 µM.

Still in this experiment, the particulars now being: enzyme 5 U/mL, 100 mM urea, buffer pH 8.2, 30 min pre-incubation at 37 °C, absorbance at 630 nm, triplicate; read-out: Inhibitory activity IC50 against jack bean urease.
`NC(N)=S` [Thiourea]: the IC50 worked out at 22.1 ± 1.4 µM.

With “[Chlorido(η^6-p-cymene)(1,3-diazinane-2-thione)(triphenylphosphine)ruthenium(II)] hexafluoro-phosphate [Compound 12]”, the IC50 was greater than 600 µM.

“[Chlorido(η^6-p-cymene)(1H-benzo[d]imidazole-2(3H)-thione)(triphenylphosphine)ruthenium(II)] hexafluorophosphate [Compound 13]”: the IC50 was greater than 600 µM.

Consider “[Chlorido(η^6-p-cymene)(imidazolidine-2-thione)(triphenylphosphine)ruthenium(II)] hexafluoro-phosphate [Compound 11]”, for which the IC50 was greater than 600 µM.

With “[Dichlorido(1,3-diazinane-2-thione)(η^6-p-cymene)ruthenium(II)] [Compound 7]”, the concentration for half-maximal inhibition (IC50) is greater than 600 µM.

As to “[Dichlorido(1H-benzo[d]imidazole-2(3H)-thione)(η^6-p-cymene)ruthenium(II)] [Compound 8]”, the IC50 was greater than 600 µM.

For the compound “[Dichlorido(imidazolidine-2-thione)(η^6-biphenyl)ruthenium(II)] [Compound 10]”, the 50% inhibitory concentration (IC50) was greater than 600 µM.

As to “[Dichlorido(imidazolidine-2-thione)(η^6-toluene)ruthenium(II)] [Compound 9]”, the IC50 was greater than 600 µM.

The same experiment, now with this note: jack bean urease; compared to thiourea as positive control.
With `S=C1NCCCN1` [II, 1,3-diazinane-2-thione], the “urease inhibitory activity (in words)” value was “most active in the tested series”.

The experiment is the same for the next values; noted with them: jack bean urease; thiourea vs II.
Consider `NC(N)=S` [Thiourea], for which the “fold more active than compound II (IC50 ratio)” value is “more than 5 times”.

By IC50 is commonly meant the point on the concentration scale where inhibition reaches its midpoint.
